Data as given in US11129820B2, “Ferroportin-inhibitor salts” (Vifor (International) AG, priority 2017, dated 2021).
“And” between values parts separate entries of the source, which are not always exact repeats. Identical values can stand only once. Marks after values point to notes of the source that are not given here.

Key:
Hbb th3/+ mice = assay: Mouse model of β-thalassemia intermedia (Hbb th3/+ mice); format: in vivo; details: for Correction of anemia at day 20-48 by 20/60 mg/kg: hemoglobin difference to vehicle; for Decrease in serum iron by 20/60 mg/kg compound: dosed for 3 h
Experimental: The efficacy of Fpn inhibitors is investigated using a mouse model of transfusion-independent β-thalassemia. Mice with heterozygous deletion of β 1 and β 2 globin genes (called Hbb th3/+ mice) develop transfusion-independent anemia, ineffective erythropoiesis, splenomegaly and secondary iron overload in spleen, liver and kidneys. […] Hbb th3/+ mice are dosed twice daily with either compound at 20 or 60 mg/kg or with methylcellulose (10 ml/kg, Sigma, Cat. 274429) as a vehicle. Between both doses mice have access to drinking water supplemented with 1 mM ^58Fe(II)-sulfate (Vifor Pharma, Batch No. ROR 3096) and 10 mM ascorbic acid (Sigma, Cat. 795437) for 6 h. The concentration of ^58Fe(II)-Sulfate supplied in the drinking water is adjusted to substitute for intake of standard rodent diet with iron content of 250 ppm. Water without ^58Fe(II)-Sulfate and ascorbic acid is provided during the remaining 18 h. Dosing of Fpn inhibitors or vehicle followed by exposure to iron-containing water is repeated for 20 to 46 days in individual experiments.
Additional hematologic parameters are measured in terminal blood using automated blood cell analyzer.
The inefficient erythropoiesis of Hbb th3/+ mice causes excessive proliferation of erythroid precursors in spleen, leading to splenomegaly.
Elevated erythropoietin levels in Hbb th3/+ mice induce overexpression of erythroferrone, an erythroid regulator hormone known to suppress hepcidin (Kautz L. et al, Nat. Genet., 2014). […] Erythroferrone is produced by erythrocyte precursors proliferating massively in spleens of Hbb th3/+ mice as a consequence of extramedullar erythropoiesis.
Increased iron demand due to inefficient erythropoiesis and chronically low hepcidin levels in patients with thalassemia causes organ iron loading and associated morbidities, such as hepatocellular carcinoma and heart failure (Rivella S. Haematologica, 2015). Hbb th3/+ mice absorb excessive amounts of iron as a consequence of inadequately low hepcidin levels relative to the high iron content in liver, spleen and kidney and increased ferroportin expression in duodenum (Gardenghi S., Blood, 2007).
Additionally, reactive oxygen species (ROS) are detected in bone marrow cells using a fluorescent indicator, CM-H2DCFDA (Thermo Fisher Scientific, Cat. C6827).
Data are expressed as difference to the vehicle control group for hemoglobin and as % change to the vehicle control group for all other parameter shown

[1] = test system: beta2-microglobulin deficient (b2m−/−) mice; assay: Correction of hyperferremia in beta2-microglobulin deficient mice; format: in vivo, mouse; details: for Serum Iron Reduction (%): 1 hour (#)
Experimental: Female and male homozygous b2m−/− mice are supplied from Jackson Laboratories (B6.129P2-B2mtm1Unc/J, Stock Number: 002087) at age of 6 to 7 weeks and fed standard diet (Harlan Provimi Kliba 3436) ad libitum. Age and gender matched WT C57BL/6 mice are supplied by Charles River. To study the acute effects of ferroportin (Fpn) inhibitors in iron overload b2m−/− mice are treated with compounds or the corresponding amount of vehicle at a volume of 10 ml/kg body weight. Fpn inhibitor compounds are formulated in 0.5% methylcellulose/water or 20% cremophor EL/water and dosed p.o. in mice at 50 mg/kg body weight. WT controls received only vehicle. Three hours later, mice are pre-terminally anesthetized in isoflurane chambers and blood is collected by retro-orbital bleeding. Mice are sacrificed by cervical dislocation and spleens, livers and duodena are harvested and used for biomarker analysis. All experiments are performed in compliance with license approved by the responsible veterinarian authorities. Serum is isolated by centrifugation of blood into gel-containing microtainers (BD Biosciences) and serum iron is determined by the MULTIGENT Iron assay (Abbott Diagnostics, Cat. 6K95). Four to nine mice per group are used and one-way ANOVA with Bonferroni's multiple comparison test is applied to analyze the statistical differences between the experimental groups.
Blood is collected 1 (#) or 3 (##) hours after oral administration of the indicated doses of Fpn inhibitors to beta2-microglobulin deficient mice and serum iron concentrations are measured. Relative reduction (%) of serum iron levels are shown, which were calculated by subtracting the average of serum iron values of animals dosed with the Fpn inhibitor from that of vehicle-treated animals. The difference in average serum iron values between vehicle and compound treated groups was then divided by the average of serum iron of the vehicle control group and listed as percentage. Values are listed separately for female (♀) and male (♂) animals, because a marked sex-dependent difference in efficacy was noted. Statistically significant (2-way ANOVA with Bonferroni post test) differences observed between compound-treated and vehicle-treated groups are indicated (*** p<0.001; ** p<0.01, p<0.05).

[2] = test system: beta2-microglobulin deficient (b2m−/−) mice; assay: Prevention of iron overload in beta2-microglobulin deficient mice; format: in vivo, mouse; details: 20 mg/kg p.o. b.i.d., 14 days
Experimental: In addition, feeding 3 week old b2m−/− mice a diet with low iron content (LID) immediately after weaning prevents liver iron loading by age of 6-7 weeks. The efficacy of the Fpn inhibitors to prevent liver iron accumulation in b2m−/− mice is investigated. Three weeks old b2−/− mice fed LID are dosed with either Fpn inhibitor or vehicle (methylcellulose; 10 ml/kg). Mice have access to drinking water supplemented with 1 mM ^58Fe(II)-sulfate and 10 mM ascorbic acid. Dosing of Fpn inhibitor or vehicle followed by exposure to iron-containing water is repeated for 14 days. Mice are euthanized and the liver and spleen iron contents are analyzed by ICP-OES (all iron isotopes) and liver tissue is also analyzed for ^58Fe concentration (ICP-MS).
Livers and spleens are collected after 14 day treatment (p.o.; b.i.d) of beta2-microglobulin deficient mice with the indicated doses of Fpn inhibitors. Total liver and spleen tissue iron concentrations are measured using ICP-OES and ^58Fe liver concentrations are determined with ICP-MS. Relative changes (%) of tissue iron levels are calculated by normalizing the difference between the averages of tissue iron values of animals dosed with the Fpn inhibitors and those of vehicle-treated animals with the average of vehicle controls.

[3] = 20 mg/kg twice daily for 20-46 days, % change to vehicle
[4] = 60 mg/kg twice daily for 20-46 days, % change to vehicle

Structure (SMILES): O=C(NCc1ncccc1F)c1csc(CCNCc2nc3ccccc3[nH]2)n1 [Example Compound No. 40]
- Decrease in ^58Fe spleen iron content by 20/60 mg/kg compound (Hbb th3/+ mice; [3]): 19%
- Decrease in blood reticulocyte counts by 20/60 mg/kg compound (Hbb th3/+ mice; [3]): 19%
- Decrease in leukocyte counts by 20/60 mg/kg compound (Hbb th3/+ mice; [3]): 0%
- Increase in blood erythrocyte counts by 20/60 mg/kg compound (Hbb th3/+ mice; [3]): 2%
- Increase in hematocrit by 20/60 mg/kg compound (Hbb th3/+ mice; [3]): 0%
- Prevention of liver ^58Fe loading by 20/60 mg/kg (Hbb th3/+ mice; [3]): 20%
- Correction of anemia at day 20-48 by 20/60 mg/kg (Hbb th3/+ mice; 20 mg/kg twice daily): 6 g/L
- Decrease in serum iron by 20/60 mg/kg compound (Hbb th3/+ mice; 20 mg/kg, % change to vehicle): 28%
- Decrease in ^58Fe spleen iron content by 20/60 mg/kg compound (Hbb th3/+ mice; [4]): 51%
- Decrease in blood reticulocyte counts by 20/60 mg/kg compound (Hbb th3/+ mice; [4]): 43%
- Increase in blood erythrocyte counts by 20/60 mg/kg compound (Hbb th3/+ mice; [4]): 22%
- Increase in hematocrit by 20/60 mg/kg compound (Hbb th3/+ mice; [4]): 1%
- Prevention of liver ^58Fe loading by 20/60 mg/kg (Hbb th3/+ mice; [4]): 48%
- Correction of anemia at day 20-48 by 20/60 mg/kg (Hbb th3/+ mice; 60 mg/kg twice daily): 13 g/L
- Decrease in serum iron by 20/60 mg/kg compound (Hbb th3/+ mice; 60 mg/kg, % change to vehicle): 58%
- Correction of elevated serum iron, in words ([1]; b2m−/− mice, 50 mg/kg p.o., 3 h): corrected the elevated serum iron to the levels observed in WT controls
- Serum Iron Reduction (%) ([1]; female ♀, 20 mg/kg oral): 0%
- Serum Iron Reduction (%) ([1]; female ♀, 60 mg/kg oral, 60 mg/kg): 13% and 10%
- Serum Iron Reduction (%) ([1]; male ♂, 20 mg/kg oral): 35** %
- Serum Iron Reduction (%) ([1]; male ♂, 60 mg/kg oral, 60 mg/kg): 32** % and 58** %
- Total Liver Iron Reduction (%) ([2]; female ♀): 32%
- Total Spleen Iron Increase (%) ([2]; female ♀): 50* %
- ^58Fe Liver Iron Reduction (%) ([2]; female ♀): 44%
- Total Liver Iron Reduction (%) ([2]; male ♂): 31%
- ^58Fe Liver Iron Reduction (%) ([2]; male ♂): 53* %
